Tested on: patients with metastatic castration-sensitive prostate cancer (mCSPC)
[1] = within 30 days of last dose, n = 524

In the case of `CNC(=O)c1ccc(N2C(=S)N(c3cnc(C#N)c(C(F)(F)F)c3)C(=O)C23CCC3)cc1F` [Apalutamide, 4-[7-(6-cyano-5-trifluoromethylpyridin-3-yl)-8-oxo-6-thioxo-5,7-diazaspiro[3.4]oct-5-yl]-2-fluoro-N-methylbenzamide], the “AE leading to dose interruption: Syncope” value (Grade ≥3) is reported as 1 (0.2) no. (%), the “AE leading to dose interruption: Thrombocytopenia” value (Grade ≥3) is reported as 0 no. (%) and the “AE leading to dose interruption: Tongue ulceration” value (Grade ≥3) is reported as 0 no. (%). For the same compound, the “AE leading to dose interruption: Urethral stenosis” value (Grade ≥3) was 0 no. (%), the “AE leading to dose interruption: Urinary incontinence” value (Grade ≥3) was 0 no. (%) and the “AE leading to dose interruption: Urinary retention” value (Grade ≥3) was 2 (0.4) no. (%). For the same compound, the “AE leading to dose interruption: Urinary tract obstruction” value (Grade ≥3) was 1 (0.2) no. (%), the “AE leading to dose interruption: Vertigo” value (Grade ≥3) was 1 (0.2) no. (%) and the “AE leading to dose interruption: Vomiting” value (Grade ≥3) was 0 no. (%). The “AE leading to dose interruption: Weight increased” value (Grade ≥3) was 0 no. (%), the “AE leading to dose reduction: Aspartate aminotransferase or alanine aminotransferase increased” value (Grade ≥3) was 0 no. (%) and the “AE leading to dose reduction: Asthenia” value (Grade ≥3) was 0 no. (%). For the same compound, the “AE leading to dose reduction: Cognitive disorder” value (Grade ≥3) was 1 (0.2) no. (%), the “AE leading to dose reduction: Dehydration” value (Grade ≥3) was 0 no. (%) and the “AE leading to dose reduction: Fatigue” value (Grade ≥3) was 2 (0.4) no. (%). The “AE leading to dose reduction: General physical health deterioration” value (Grade ≥3) was 1 (0.2) no. (%), the “AE leading to dose reduction: Headache” value (Grade ≥3) was 0 no. (%) and the “AE leading to dose reduction: Hot flush” value (Grade ≥3) was 0 no. (%). For the same compound, the “AE leading to dose reduction: Hypertension” value (Grade ≥3) was 1 (0.2) no. (%), the “AE leading to dose reduction: Lethargy” value (Grade ≥3) was 0 no. (%) and the “AE leading to dose reduction: Neutropenia” value (Grade ≥3) was 2 (0.4) no. (%). For the same compound, the “AE leading to dose reduction: Pain” value (Grade ≥3) was 0 no. (%), the “AE leading to dose reduction: Performance status decreased” value (Grade ≥3) was 0 no. (%) and the “AE leading to dose reduction: Rash (grouped term)” value (Grade ≥3) was 11 (2.1) no. (%). The “AE leading to dose reduction: Vertigo” value (Grade ≥3) was 1 (0.2) no. (%), the “AE leading to dose reduction: Weight decreased” value (Grade ≥3) was 1 (0.2) no. (%) and the “AE of special interest: Fall” value (Grade ≥3) was 4 (0.8) no. (%). The “AE of special interest: Fracture (grouped term)” value (Grade ≥3) was 7 (1.3) no. (%), the “AE of special interest: Hypothyroidism (grouped term)” value (Grade ≥3) was 0 no. (%) and the “AE of special interest: Rash (grouped term)” value (Grade ≥3) was 33 (6.3) no. (%). For the same compound, the “AE of special interest: Seizure (grouped term)” value (Grade ≥3) was 1 (0.2) no. (%), the “Patients with treatment-emergent adverse events leading to discontinuation” value (Grade ≥3) was 26 (5.0) no. (%) and the “Patients with treatment-emergent adverse events leading to dose reduction” value (Grade ≥3) was 19 (3.6) no. (%). For the same compound, the “Patients with treatment-emergent events leading to dose interruption” value (Grade ≥3) was 68 (13.0) no. (%), the “TEAE: Anemia” value (Grade ≥3) was 9 (1.7) no. (%) and the “TEAE: Arthralgia” value (Grade ≥3) was 2 (0.4) no. (%). The “TEAE: Asthenia” value (Grade ≥3) was 10 (1.9) no. (%), the “TEAE: Back pain” value (Grade ≥3) was 12 (2.3) no. (%) and the “TEAE: Blood alkaline phosphatase increased” value (Grade ≥3) was 2 (0.4) no. (%). The “TEAE: Bone pain” value (Grade ≥3) was 6 (1.1) no. (%), the “TEAE: Constipation” value (Grade ≥3) was 0 no. (%) and the “TEAE: Fatigue” value (Grade ≥3) was 8 (1.5) no. (%). The “TEAE: Hot flush” value (Grade ≥3) was 0 no. (%), the “TEAE: Hypertension” value (Grade ≥3) was 44 (8.4) no. (%) and the “TEAE: Pain in extremity” value (Grade ≥3) was 3 (0.6) no. (%). The “TEAE: Pruritus” value (Grade ≥3) was 1 (0.2) no. (%), the “TEAE: Rash generalized” value (Grade ≥3) was 14 (2.7) no. (%) and the “TEAE: Urinary retention” value (Grade ≥3) was 0 no. (%). The “TEAE: Weight increased” value (Grade ≥3) was 6 (1.1) no. (%), the “Patients who died as the result of an adverse event” value (Ten patients) was 1.9% and the Hypothyroidism reported (all events were grade 1 or 2) was 6.5%. The “AE leading to discontinuation: Suicide” value (in vivo) was 0 no. (%), the “AE leading to dose interruption: Acute kidney injury” value (in vivo) was 1 (0.2) no. (%) and the “AE leading to dose interruption: Acute respiratory failure” value (in vivo) was 1 (0.2) no. (%). For the same compound, the “AE leading to dose interruption: Allergy to chemicals” value (in vivo) was 1 (0.2) no. (%), the “AE leading to dose interruption: Anemia” value (in vivo) was 0 no. (%) and the “AE leading to dose interruption: Angina unstable” value (in vivo) was 0 no. (%). For the same compound, the “Frequency of grade 3 and 4 events” value (in vivo) was 42.2%, the “Frequency of serious adverse events” value (in vivo) was 19.8% and the “Grade 3 rashes” value (in vivo) was 6.3%. The “Ischemic events led to death” value (in vivo) was “two”, the “Ischemic heart disease reported” value (in vivo) was 4.4% and the “Median time to onset of rash” value (in vivo) was 81 days. For the same compound, the “Most common event considered related to apalutamide: rash of any type” value (in vivo) was 6.3%, the “Rash of any grade (treatment-emergent skin rash)” value (in vivo) was 27.1% and the “Stevens-Johnson syndrome or toxic epidermal necrolysis” value (in vivo) was “No Stevens-Johnson syndrome or toxic epidermal necrolysis was reported”. The “All deaths within 30 days of last dose” value (investigator reported, n = 524) was 18 (3.4) no. (%), the “AE leading to death: Acute coronary syndrome” value (n = 524) was 0 no. (%) and the “AE leading to death: Acute kidney injury” value (n = 524) was 2 (0.4) no. (%). For the same compound, the “AE leading to death: Acute myocardial infarction” value (n = 524) was 1 (0.2) no. (%), the “AE leading to death: Cardiac failure” value (n = 524) was 0 no. (%) and the “AE leading to death: Cardio-respiratory arrest” value (n = 524) was 1 (0.2) no. (%). The “AE leading to death: Cardiogenic shock” value (n = 524) was 1 (0.2) no. (%), the “AE leading to death: Cerebrovascular accident” value (n = 524) was 1 (0.2) no. (%) and the “AE leading to death: Death” value (n = 524) was 0 no. (%). For the same compound, the “AE leading to death: Hypothermia” value (n = 524) was 0 no. (%), the “AE leading to death: Intracranial hemorrhage” value (n = 524) was 0 no. (%) and the “AE leading to death: Myocardial infarction” value (n = 524) was 1 (0.2) no. (%). For the same compound, the “AE leading to death: Pulmonary embolism” value (n = 524) was 0 no. (%), the “AE leading to death: Respiratory failure” value (n = 524) was 1 (0.2) no. (%) and the “AE leading to death: Sepsis” value (n = 524) was 0 no. (%). For the same compound, the “AE leading to death: Subdural hemorrhage” value (n = 524) was 0 no. (%), the “AE leading to death: Sudden cardiac death” value (n = 524) was 1 (0.2) no. (%) and the “AE leading to death: Sudden death” value (n = 524) was 0 no. (%). The “AE leading to death: Suicide” value (n = 524) was 0 no. (%), the “AE leading to death: Urosepsis” value (n = 524) was 0 no. (%) and the “AE leading to death: Vascular rupture” value (n = 524) was 0 no. (%). The “Adverse event leading to death” value (n = 524) was 10 (1.9) no. (%), the Any adverse event (n = 524) was 507 (96.8) no. (%) and the “Any adverse event leading to treatment discontinuation” value (n = 524) was 42 (8.0) no. (%). The “Any serious adverse event” value (n = 524) was 104 (19.8) no. (%), the “Grade 3 or 4 adverse event” value (n = 524) was 221 (42.2) no. (%) and the “Patients with adverse events as the primary reason for discontinuation” value (n = 525) was 39 (7.4) no. (%). The “Patients with adverse events leading to discontinuation” value (n = 525 (Table 5)) was 42 (8.0) no. (%), the “Death due to adverse event” value [1] was 10 (1.9) no. (%) and the “Death due to prostate cancer” value [1] was 8 (1.5) no. (%).
